The conditions of series [1]: 500 mg daily in humans; cited from earlier work.
The target of another series is T1, wild type IDH1 (Homo sapiens, UniProt O75874).
T1 construct: endogenous in cells; host or cells: MiaPaCa2
Briefly: wild type IDH1 enzyme activity at varying Mg2+ concentrations (FIG. 19). It counts as cell-based. Conditions: 1 μM, Mg2+ below 0.4 mM. An excerpt:
In one embodiment, the cancer treated in accordance with any of the invention's methods contains cancer cells having a lower Magnesium^2+ (Mg^2+) concentration compared to Mg^2+ concentration in serum, such as serum from the subject and/or serum from a control subject lacking cancer.

Series [2] relates to pancreatic cancer cell line (Panc1) cells. Briefly: reactive oxygen species (ROS) levels in Panc1 cells. It counts as cell-based. The conditions noted are these: 1 μM, zero mM magnesium ion, 2.5 mM glucose, Panc1, 48 hours. The procedure: ROS levels were measured by measuring 2′,7′-dichlorodihydrofluorescein diacetate (DCFDA) or MitoSOX as previously described (Zarei et al. (2017) Cancer Res; 77(16) 4460-4471).
Importantly, these low magnesium ion and low glucose conditions were consistent with the pancreatic cancer tumor microenvironment (FIG. 6).

In series [3] the test system is wild type IDH1 pancreatic cancer (MiaPaCa2 cell line) xenografts. Briefly: pancreatic xenograft study (MiaPaCa2). It counts as in vivo, mice. Conditions: oral 150 mg/kg. From the text:
FIG. 7. […] No toxicity to mice occurred at these oral doses.
No toxicity was observed.

T1 sequence (O75874 2-414): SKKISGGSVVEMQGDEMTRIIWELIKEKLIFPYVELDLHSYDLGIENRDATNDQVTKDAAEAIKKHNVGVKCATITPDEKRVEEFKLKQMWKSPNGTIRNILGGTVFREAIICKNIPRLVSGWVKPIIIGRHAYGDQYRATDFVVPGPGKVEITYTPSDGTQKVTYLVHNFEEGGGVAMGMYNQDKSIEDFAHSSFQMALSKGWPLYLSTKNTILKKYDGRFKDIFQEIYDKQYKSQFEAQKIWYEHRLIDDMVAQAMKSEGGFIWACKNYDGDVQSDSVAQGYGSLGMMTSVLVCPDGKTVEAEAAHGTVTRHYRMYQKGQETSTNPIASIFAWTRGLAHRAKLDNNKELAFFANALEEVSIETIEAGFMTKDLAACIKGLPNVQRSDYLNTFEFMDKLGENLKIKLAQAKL

For the compound `N#Cc1ccnc(N2C(=O)CC[C@H]2C(=O)N(c2cncc(F)c2)[C@H](C(=O)NC2CC(F)(F)C2)c2ccccc2Cl)c1` [AG-120, Ivosidenib], the plasma concentration in series [1] was 130 µM. In addition, the “reduction of wild type IDH1 enzyme activity” value at wild type IDH1 was 50%. Further, the “increase in ROS” value in series [2] came out at 3 fold. Also, in series [3], the toxicity to mice entry is reported as “No toxicity”.

Source of the values: patent publication US12168005B2, “Methods for treating wild type isocitrate dehydrogenase 1 cancers” (University Hospitals Cleveland Medical Center, priority 2019, dated 2024).
